Biological target: RPA70 (replication protein A) (Homo sapiens, UniProt P27694)
Assay: reconstituted RPA-dependent ATR kinase assay with western blot
Format: biochemical

RPA70 (replication protein A), sequence (P15927 whole entry): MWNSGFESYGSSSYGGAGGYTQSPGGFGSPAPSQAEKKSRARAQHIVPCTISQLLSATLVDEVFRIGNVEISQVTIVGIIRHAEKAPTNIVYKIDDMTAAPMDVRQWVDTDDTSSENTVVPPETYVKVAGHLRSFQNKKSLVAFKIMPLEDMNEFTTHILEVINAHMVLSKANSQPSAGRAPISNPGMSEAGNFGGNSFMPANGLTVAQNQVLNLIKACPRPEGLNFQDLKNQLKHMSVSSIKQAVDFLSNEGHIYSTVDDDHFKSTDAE
RPA70 (replication protein A), sequence (P35244 2-121, further chain): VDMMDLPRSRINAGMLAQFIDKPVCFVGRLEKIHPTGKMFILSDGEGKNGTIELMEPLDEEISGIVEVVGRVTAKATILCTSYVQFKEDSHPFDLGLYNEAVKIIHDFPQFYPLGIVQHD
RPA70 (replication protein A), sequence (P27694 whole entry): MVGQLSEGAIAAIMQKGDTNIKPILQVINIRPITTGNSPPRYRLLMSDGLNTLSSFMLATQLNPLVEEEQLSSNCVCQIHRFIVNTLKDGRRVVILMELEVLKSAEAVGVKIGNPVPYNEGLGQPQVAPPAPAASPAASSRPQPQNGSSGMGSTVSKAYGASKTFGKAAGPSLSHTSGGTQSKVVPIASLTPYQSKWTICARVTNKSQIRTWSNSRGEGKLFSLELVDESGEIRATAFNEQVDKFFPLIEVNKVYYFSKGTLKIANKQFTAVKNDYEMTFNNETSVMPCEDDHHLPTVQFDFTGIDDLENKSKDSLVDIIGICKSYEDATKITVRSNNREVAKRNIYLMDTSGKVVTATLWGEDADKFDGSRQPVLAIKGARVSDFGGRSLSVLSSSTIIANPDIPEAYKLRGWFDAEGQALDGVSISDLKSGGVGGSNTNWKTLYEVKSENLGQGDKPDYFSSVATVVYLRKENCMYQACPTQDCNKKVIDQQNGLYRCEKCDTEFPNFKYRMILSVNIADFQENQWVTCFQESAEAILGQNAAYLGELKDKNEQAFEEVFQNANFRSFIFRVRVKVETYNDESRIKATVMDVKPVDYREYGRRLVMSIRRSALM

`O=C1C=Cc2ccccc2/C1=C/Nc1ccccc1O` [HAMNO, (1Z)-1-[(2-hydroxyanilino)methylidene]naphthalen-2-one] was tested, and the “reconstituted RPA-dependent ATR kinase assay with western blot” value was “we titrated increasing amounts of HAMNO and PAME into the fully activated ATR reaction”.

From publication PMC11347632 (Scientific Reports, 2024)
